What was measured:
mycobacteria marinum = assay: Finger infection, patient case; format: in vivo, human; details: after eleven days of antibiotics
Description: Action against Mycobacteria: A person with four month long history of an infection on the posterior aspect of their right ring finger was treated. The infected areas were culture positive for mycobacteria marinum, with symptoms of infection resulting in a 4 cm long patchy zone of erythema, induration, and oozing from the wound. After failing two full courses of oral antibiotics, over the previous four months, the patient was given a third round of antibiotics, this time Clarythromycin, after their finger's condition had worsened.

[1] = test system: ATCC 29213 (MSSA) and ATCC 43330 (MRSA); assay: Petri dish (Mueller-Hinton agar) drop test, zones of inhibition vs controls; format: cell-based, Staphylococcus aureus; details: for order of anti-bacterial effectiveness: at a given concentration
Description: Testing was conducted at a pathology laboratory certified for microbiology testing by a physician and a microbiologist. A double blind, randomized controlled experiment was conducted to evaluate the surfactant compounds against bacteria in Petri dishes.
Bacterial strain: Two well characterized strains of methicillin-sensitive Staphylococcus aureus (MSSA) and methicillin-resistant Staphylococcus aureus (MRSA) were used. Specifically, experiments used ATCC 29213 (MSSA) and ATCC 43330 (MRSA), both beta-lactamase positive strains, which represent greater than 90% of the respective strains in the American population.
Petri dish preparation: A sterile cotton swab (American Scientific Products, McGraw Park, Ill.) was dipped into the cultures and used to swab the entire surface of 150×15 mm Petri dishes containing 75 ml of standard Mueller-Hinton agar. Two Petri dishes were inoculated with ATCC 29213 (MSSA and two Petri dishes with ATCC 43330 (MRSA). One Petri dish of each group (MSSA and MRSA) was set aside as the controls. The other two Petri dishes (MSSA and MRSA) were divided up in quadrants, and each quadrant was labeled B, C, D or E.
Cleanser compositions were prepared as follows: A surfactant solution containing about 10% by volume of sodium dodecylbenzenesulfonate was prepared. An aqueous stock solution containing 0.5% by volume sodium hypochlorite and 0.5% by volume abrasive (calcium carbonate and sodium carbonate) was prepared. The surfactant solution and stock solution were mixed in various ratios to produce four skin cleanser solutions having four different surfactant concentrations of 0.5%, 1%, 2% and 8%, by volume. The amount of sodium hypochlorite, calcium carbonate and sodium carbonate in each of the four skin cleanser solutions was less than 1% concentration by volume.
Cleanser Testing: Four samples of the cleanser with the four different concentrations of the surfactant (0.5%, 1%, 2% and 8%) were placed into four separate, unmarked bottles. Each bottle was randomly labeled (B, C, D, or E), and the microbiologist conducting the study was unaware of any difference between the solutions.
Application: Holding each bottle vertically, the microbiologist added a single drop from each bottle (B, C, D, or E) to the corresponding quadrant of the labeled Petri dish. All four Petri dishes were placed in an incubator overnight at 37 degrees Celsius, and examined 20 hours later. Petri dishes were compared to the corresponding controls, and zones of inhibition were characterized by the largest point of diameter of the circle or oval.
Four cleanser compositions were prepared and tested in the manner described in Example 1, except that each cleanser contained a different anionic surfactant. […]

Enterococcus = assay: Infected decubitus ulcer, patient case; format: in vivo, human; details: on antibiotics, five days after admission
Description: Action against Gram-positives such as Enterococcus: A person with long history of diabetes was admitted from their hospice care home to an acute care facility hospital secondary to an infected decubitus ulcer (bedsore). This patient's sacral ulcer tested positive from culture swab for Enterococcus, a common Gram-positive bacterium for infecting bedsores. Immediately upon admission, the patient was placed on antibiotics (ciprofloxacin). […] On day five, the treating physician directly cultured the wound again with two cotton swabs. Cotton swab #1, the control, was placed directly in the sealed container based on hospital protocol. Cotton swab #2 was placed into the sealed container, but one single vertical drop of a cleanser solution (prepared as described in Example 1). Both swabs were sent to the lab and a count of colony-forming units (CFUs) ordered.

Molecule: CC[C@H]1OC(=O)[C@H](C)[C@@H](O[C@H]2C[C@@](C)(OC)[C@@H](O)[C@H](C)O2)[C@H](C)[C@@H](O[C@@H]2O[C@H](C)C[C@H](N(C)C)[C@H]2O)[C@](C)(OC)C[C@@H](C)C(=O)[C@H](C)[C@@H](O)[C@]1(C)O [Clarythromycin]
- symptoms of infection (mycobacteria marinum): no change in symptoms

Molecule: CCCCCCCCCCCC(=O)N(C)CC(=O)[O-].[Na+] [N-lauroylsarcosine sodium salt]
- order of anti-bacterial effectiveness [1]: sodium dodecylbenzenesulfonate >N-lauroylsarcosine sodium salt >sodium cholate, sodium deoxycholate

Molecule: OCl [Sodium hypochlorite]
- effect on anti-bacterial action of sodium dodecylbenzenesulfonate ([1]; synergy of action): potentiated

Molecule: O=C(O)c1cn(C2CC2)c2cc(N3CCNCC3)c(F)cc2c1=O [ciprofloxacin]
- course of ulcer (Enterococcus): signs of worsening

Molecule: C[C@H](CCC(=O)[O-])[C@H]1CC[C@H]2[C@@H]3[C@H](O)C[C@@H]4C[C@H](O)CC[C@]4(C)[C@H]3C[C@H](O)[C@]12C.[Na+] [sodium cholate]
- order of anti-bacterial effectiveness [1]: sodium dodecylbenzenesulfonate >N-lauroylsarcosine sodium salt >sodium cholate, sodium deoxycholate

Molecule: sodium deoxycholate
- order of anti-bacterial effectiveness [1]: sodium dodecylbenzenesulfonate >N-lauroylsarcosine sodium salt >sodium cholate, sodium deoxycholate

Reference: US20070232694A1, “SKIN CLEANSER” (priority 2006, published 2007)
